Data: patent US9926369B2, “Methods for treating hepatocellular cancer by administering an anti-Ang-2 antibody” (Regeneron Pharmaceuticals, Inc., priority 2009, dated 2018)

Columns and labels:
[1] = tested on: COLO 205 (Human Colorectal Adenocarcinoma Cell Line) tumors; assay: COLO 205 mouse tumor model; assay type: in vivo, mice
Experimental: Briefly, 2×10^6COLO 205 cells in 100 μl of serum-free medium were injected subcutaneously into the flank of 6-8 week old male NCr nude mice (Taconic, Hudson, N.Y.). After tumor volumes reached an average of about 150 mm^3, mice were randomized into groups for treatment with antibody or Fc protein. Mice in each treatment group were administered an anti-Ang-2 antibody or Fc protein at a concentration of 4 mg/kg via intraperitoneal injection twice per week for approximately two weeks. Tumor volumes were measured twice per week over the course of the experiment and tumor weights were measured upon excision of tumors at the conclusion of the experiment. Averages (mean+/−standard deviation) of tumor weight and growth were calculated for each treatment group. “Avg. Tumor Growth” represents the average growth from the time of treatment initiation (when tumors were approximately 150 mm^3). Percent decrease of tumor weight and growth are calculated from comparison to Fc protein measurements.
A similar experiment was carried out to assess the effect of H1H685P, in particular, on COLO 205 tumor growth. Briefly, 2×10^6 COLO 205 cells in 100 μl of serum-free medium were implanted subcutaneously into the right hind flank of 9-11 week-old male SCID CB17 mice. When the tumors reached ˜125 mm^3, mice were randomized into 5 groups (n=7-8 mice/group) and treated twice per week with Fc protein (15 mg/kg), H1H685P (5 or 25 mg/kg) or Control II (5 or 25 mg/kg) for a period of 19 days. Tumor volumes were measured twice per week over the course of the experiment and tumor weights were measured upon excision of tumors at the end of the experiment. Averages of tumor weight and growth from the beginning of treatment were calculated for each group. Percent decrease of tumor weight and growth are calculated from comparison to the Fc control group.
To determine the effect of combining an anti-Ang-2 antibody with a VEGF inhibitor on the growth of COLO 205 xenografts, 2×10^6 cells were implanted subcutaneously into the right hind flank of 6-8 week-old female SCID mice. When the tumors reached an average volume of ˜350 mm^3, mice were randomized into 4 groups (n=6 mice/group) and treated with: human Fc protein (7.5 mg/kg), H1H685P (5 mg/kg), VEGF Trap (see U.S. Pat. No. 7,087,411) (2.5 mg/kg) or the combination of H1H685P+VEGF Trap. Mice were given a total of 3 doses over 10 days of treatment. Tumor volumes were measured twice per week over the course of the experiment. Averages of tumor growth from the start of treatment (mean+/−standard deviation) were calculated for each treatment group. Percent decrease of tumor growth was calculated from comparison to the Fc control group.
To test the effect of H1H685P in combination with a chemotherapeutic agent on tumor growth, 2.5×10^6 COLO 205 tumor cells were implanted subcutaneously into the right hind flank of 8-9 week-old male SCID mice. When the tumors reached an average volume of ˜150 mm^3 (day 17 after implantation), mice were randomized into 4 groups (n=5 mice/group) and treated as follows: the first group was treated sc with 15 mg/kg hFc and intraperitoneally (ip) with 5-FU vehicle; the second group was treated sc with 15 mg/kg of H1H685P; the third group was treated ip with 75 mg/kg of 5-FU; the fourth group was treated with the combination of 15 mg/kg H1H685P sc plus 75 mg/kg 5-FU ip. Mice received a total of three treatments, administered every 3-4 days. Tumor volumes were measured twice per week over the course of the experiment. Average (mean+/−standard deviation) tumor growth from the beginning of treatment until day 38 was calculated for each group. Percent decrease of tumor growth was calculated from comparison to the control group.

MMT tumors = assay: MMT tumor growth in SCID mice; assay type: in vivo; settings: H1H685P 12.5 mg/kg, VEGF Trap 5 mg/kg
Experimental: To provide additional evidence of combination efficacy, the effect of the H1H685P+VEGF Trap combination on the growth of MMT tumors was assessed. 0.5×10^6 MMT cells were implanted subcutaneously into the right hind flank of 6-8 week-old female SCID mice. […] The Fc and H1H685P groups were given 3 doses over 9 days. The VEGF Trap and combination groups were given 4 doses over 12 days. Tumor volumes were measured twice per week over the course of the experiment and tumor weights were measured upon excision of tumors at the end of the experiment (due to their large size, tumors from the Fc and H1H685P groups were collected 3 days before tumors from the VEGF Trap and combination groups). Averages (mean+/−standard deviation) of tumor growth from the beginning of treatment and of tumor weight were calculated for each group. Percent decrease of tumor weight and growth are calculated from comparison to the Fc control group.

[2] = tested on: COLO 205 tumor vessel perfusion; assay: Tumor perfusion by contrast-enhanced micro-ultrasound, COLO 205 tumors; assay type: in vivo, mice; settings: treated for 24 hrs
Experimental: To determine whether the combination of H1H685P+VEGF Trap has a greater effect on tumor vessel function than the single agents, a micro-ultrasound (VisualSonics' Vevo 770 imaging system) was used to assess changes in tumor perfusion. COLO 205 tumors were grown to ˜125 mm^3 and mice were then treated for 24 hrs with H1H685P, VEGF Trap or the combination of both agents. Following treatment, tumor vessel perfusion was determined based on contrast-enhanced micro-ultrasound 2D image acquisition and analysis of a “wash-in” curve, which represents the amount of contrast agent entering the tumor. Average (mean+/−standard deviation) tumor perfusion was calculated for each group. Percent decrease was calculated from comparison to the Fc control group.

[3] = COLO 205, male SCID mice, H1H685P 15 mg/kg sc, 5-FU 75 mg/kg ip, three treatments, until day 38
[4] = COLO 205, female SCID mice, H1H685P 5 mg/kg, VEGF Trap 2.5 mg/kg, 3 doses over 10 days

Compound | % Decrease in Tumor Growth [1, 3] | Avg Tumor Growth [1, 3] | % Decrease in Tumor Growth (MMT tumors) | % Decrease in Tumor Weight (MMT tumors) | Avg Tumor Growth (MMT tumors) | Avg Tumor Weight (MMT tumors) | Relative Tumor Perfusion ([2]; mean ± SD) | % Decrease in Tumor Perfusion ([2]; vs Fc control) | % Decrease in Tumor Growth [1, 4] | Avg Tumor Growth [1, 4] | Tumor regression (in words) ([1]; COLO 205, female SCID mice, end vs beginning of treatment)
O=c1[nH]cc(F)c(=O)[nH]1 [Antibody 5-FU, 5-FU, reference compound] | 45% | 313 ± 60 mm^3 | – | – | – | – | – | – | – | – | –
VEGF Trap: VEGF-inhibiting fusion protein: VEGF receptor extracellular domains fused to the Fc portion of human IgG1 [reference compound] | – | – | 60% | 44% | 536 ± 179 mm^3 | 0.889 ± 0.141 g | 6.99 ± 1.36 | 14% | 117% | −62 ± 44 mm^3 | tumor regression was observed
